Data on four molecules can be found in paper PMC11094580 (EFSA Journal, 2024).

Like-named read-outs stand apart in the source and are kept apart here.

Data set [1] concerns Wistar rats. The data set can be described thus: In vivo micronucleus assay in peripheral blood. Also on record: species or system rat. Particulars: positive control, 10 mg/kg bw, 48 h before sacrifice.
Data set [2] has as its system Clostridium orbiscindens. As to conditions: ref Schoefer et al. (2003); cited from earlier work.
Data set [3] concerns Intestinal bacteria isolated from human faeces. As to conditions: 5 mg flavonoids in 50 mL broth, 2 days, anaerobic; ref Kim et al. (1998); cited from earlier work.
The conditions of data set [4]: ref Gardana et al. (2007), cited from earlier work.
In data set [5] the test system is Wistar rats. As to the kind of experiment: In vivo comet assay in liver and duodenum. Also on record: species or system rat. As to conditions: positive control 200 mg/kg bw.

As to `O=P1(N(CCCl)CCCl)NCCCO1` (stereo not shown) [CPA, cyclophosphamide, reference compound], in data set [1], the “% MNPCE frequency” value came out at 0.93 ± 0.16%.

In the case of `C[C@@H]1O[C@@H](O[C@H]2[C@H](Oc3cc(O)c4c(c3)O[C@H](c3ccc(O)cc3)CC4=O)O[C@H](CO)[C@@H](O)[C@@H]2O)[C@H](O)[C@H](O)[C@H]1O` [naringin, reference compound], in data set [2], the “Results: conversion by C. orbiscindens” value is on record as “did not convert”. Moreover, the “Results: bacterial metabolism” value in data set [3] is “metabolised to naringenin at early time”.

Take `COc1ccc([C@@H]2CC(=O)c3c(O)cc(O)cc3O2)cc1O` [hesperetin, reference compound]: the “mean C max (plasma hesperetin)” value is 43 ng/mL in data set [4] (BOJ 150 mL, 51 mg hesperetin) and 80 ng/mL in data set [4] (BOJ 300 mL, 102 mg hesperetin).

In the case of `CCOS(C)(=O)=O` [EMS, ethyl methanesulfonate], the figures for the “% tail intensity” value in data set [5] (duodenum) and in data set [5] (liver) were 19.67% and 18.30%, respectively.
